Structures can show the parent of a compound that is named as a salt. Where two headings read alike, the source gives them in different places.
Columns and labels:
[1] = system: human lung cancer cell line NCI-H460; test: Cell growth inhibition assay (MTT), NCI-H460; type: cell-based; settings: read-out: GI50 value (50% growth inhibitory concentration)
Description: (§1) A cell growth inhibition assay was performed using two types of cells (human breast cancer cell line SK-BR-3 and human lung cancer cell line NCI-H460).
(§2) Cells of each type were suspended in a medium and seeded into a 96-well multi-well plate at 500 cells/150 μl/well. The test compound was dissolved in DMSO, and this was diluted with medium to prepare a sample solution (DMSO concentration: 0.5% or less). On the day following the seeding, 50 μL of DMSO-containing medium to which the test compound was not added (hereinafter called DMSO diluted solution; DMSO concentration: 0.5% or less) or the sample solution was added to the cells. An MTT assay was performed immediately after and 72 hours after adding the sample solution or the DMSO diluted solution to the cells. The MTT assay was performed as follows.
(§3) 5 mg/mL of an MTT (3-(4,5-dimethylthiazol-2-yl)-2,5-diphenyltetrazolium bromide) solution was added at 20 μL per well. Thereafter, the plate was incubated at 37° C. in 5% CO2 for four hours. The plate was centrifuged at 1200 rpm for five minutes, and then the culture supernatant was removed by suction using a dispenser. DMSO was added at 150 μL per well, and the generated formazan was dissolved. The plate was stirred using a plate mixer to uniformly color the respective wells. The absorbance of each well was measured using a plate reader at an OD of 540 nm with a reference of 660 nm.
(§4) T/C (%) for each concentration was determined by the following calculation formula and a dose-response curve was drawn to calculate the 50% growth inhibitory concentration (GI50 value), based on the assumption that the OD value measured immediately after adding the sample solution was S, the OD value measured 72 hours after adding the sample solution was T, and the OD value measured 72 hours after adding the DMSO diluted solution was C. T/C(%)=(T−S)/(C−S)×100

[2] = system: human breast cancer cell line SK-BR-3; test: Cell growth inhibition assay (MTT), SK-BR-3; type: cell-based; settings: read-out: GI50 value (50% growth inhibitory concentration)
Description: as §1, §2, §3, §4

[3] = molecular target: T1, recombinant yeast Hsp90 protein (rHsp90) (Saccharomyces cerevisiae, UniProt P02829); test: Hsp90 ATPase assay; type: biochemical; settings: rHsp90 100 μg/mL, ATP 100 μM, 37° C., two hours, BIOMOL GREEN; read-out: IC50 value (concentration for 50% inhibition of ATP activity)
T1 construct: made in house; host or cells: Escherichia coli
T1 sequence (P02829 whole entry): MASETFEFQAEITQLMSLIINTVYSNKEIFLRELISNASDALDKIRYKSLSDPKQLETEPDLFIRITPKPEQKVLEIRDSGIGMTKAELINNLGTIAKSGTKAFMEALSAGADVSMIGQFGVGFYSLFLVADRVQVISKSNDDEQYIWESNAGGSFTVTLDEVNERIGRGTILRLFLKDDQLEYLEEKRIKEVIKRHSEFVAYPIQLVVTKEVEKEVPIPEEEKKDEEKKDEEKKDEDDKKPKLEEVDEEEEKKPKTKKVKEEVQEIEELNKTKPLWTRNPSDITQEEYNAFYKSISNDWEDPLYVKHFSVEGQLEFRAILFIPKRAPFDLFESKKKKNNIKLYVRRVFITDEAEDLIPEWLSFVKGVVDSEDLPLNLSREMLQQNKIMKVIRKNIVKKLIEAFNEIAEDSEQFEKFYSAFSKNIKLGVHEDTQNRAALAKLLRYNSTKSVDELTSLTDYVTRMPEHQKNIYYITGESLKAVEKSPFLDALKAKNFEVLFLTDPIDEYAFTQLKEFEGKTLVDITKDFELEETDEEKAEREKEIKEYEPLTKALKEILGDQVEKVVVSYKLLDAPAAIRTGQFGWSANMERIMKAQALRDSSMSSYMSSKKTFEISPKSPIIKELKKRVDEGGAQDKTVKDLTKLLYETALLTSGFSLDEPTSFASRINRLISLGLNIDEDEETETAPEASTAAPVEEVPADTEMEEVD
Description: An Hsp90 ATPase assay was performed using a recombinant yeast Hsp90 protein (hereinafter called rHsp90). Yeast Hsp90 DNA was cloned from a yeast genomic DNA library according to a conventional method. The cloned yeast Hsp90 DNA was incorporated into a plasmid for expression in Escherichia coli, and the plasmid was expressed in Escherichia coli to obtain rHsp90.
The test compound was dissolved in DMSO to 10 mM. The dissolved solution was diluted with DMSO to eight concentrations ranging in three-fold dilutions from 4 mM. Each diluted solution was further 10-fold diluted with an assay buffer (100 mM Tris, pH 7.4, 20 mM KCl, 6 mM MgCl2) (concentration of each test compound solution: 400 μM, 133 μM, 44.4 μM, 14.8 μM, 4.94 μM, 1.65 μM, 0.549 μM, 0.183 μM; DMSO concentration: 10%).
rHsp90 was dissolved in a TE buffer (20 mM Tris, pH 7.4, 1 mM EDTA) to a concentration of 2.531 mg/mL. The dissolved solution was diluted with assay buffer to 125 μg/mL and dispensed to a 96-well assay plate at 40 μL per well (final concentration: 100 μg/mL).
The test compound solution was dispensed at 5 μL per well, and then the solutions in the respective wells were mixed using a plate mixer. 100 mM ATP (Sigma, Catalog No. A-7699) was diluted with assay buffer to 1 mM and dispensed at 5 μL per well (final concentration: 100 μM). The solutions in the respective wells were mixed using a plate mixer, and then the assay plate was allowed to stand in an incubator set at 37° C. for two hours.
BIOMOL GREEN Reagent (BIOMOL, Catalog No. AK-111) was dispensed at 100 μL per well, and the reaction was terminated. The solutions in the respective wells were mixed by pipetting (three times), and then 34% sodium citrate was dispensed at 10 μL per well. The solutions in the respective wells were mixed by pipetting (three times), and then the assay plate was left to stand at room temperature for 10 minutes. The absorbance at 630 nm of each well was measured with a microplate reader.
The ratio of the absorbance of the test compound-added group to the absorbance of the test compound-free group (T/C value) was determined by the following calculation formula, based on the assumption that the absorbance of the well to which the test compound and rHsp90 were added was A, the absorbance of the well to which only rHsp90 was added was B, and the absorbance of the well to which neither the test compound nor rHsp90 was added was C. T/C=(A−C)/(B−C)
Further, the concentration for 50% inhibition of ATP activity (IC50 value) was calculated using GraphPad Prism 4 (GraphPad Software, Inc.).

[4] = Homo sapiens, NCI-H460, MTT assay, 72 hours
[5] = Homo sapiens, SK-BR-3, MTT assay, 72 hours

| Compound | GI50 [1, 4] [nM] | GI50 [2, 5] [nM] | IC50 [3] [nM] | GI50 ([1]; Homo sapiens, NCI-H460, 72 h) [nM] | GI50 ([2]; Homo sapiens, SK-BR-3, 72 h) [nM] | GI50 ([1]; NCI-H460, MTT assay, 72 hours) [nM] | GI50 ([2]; SK-BR-3, MTT assay, 72 hours) [nM] |
| --- | --- | --- | --- | --- | --- | --- | --- |
| COc1c(C)cnc(Cn2nc3c4c(nc(N)nc42)SCC(CC(N)=O)=C3)c1C [Example 115, 2-{4-Amino-2-[(4-methoxy-3,5-dimethylpyridin-2-yl)methyl]-2,7-dihydro-6-thia-1,2,3,5-tetraazabenzo[cd]azulen-8-yl}acetamide] | 194 | 77 | 740 |  |  |  |  |
| COc1c(C)cnc(Cn2nc3c4c(nc(N)nc42)SC(C(=O)NC2CC2)C3)c1C (stereo not drawn) [Example 12, 4-Amino-N-cyclopropyl-2-[(4-methoxy-3,5-dimethylpyridin-2-yl)methyl]-7,8-dihydro-2H-6-thia-1,2,3,5-tetraazaacenaphthylene-7-carboxamide] | 460 | 150 | 2200 |  |  |  |  |
| COc1c(C)cnc(Cn2nc3c4c(nc(N)nc42)SCC(N(C)C(C)=O)C3)c1C (stereo not drawn) [Example 99, N-{4-Amino-2-[(4-methoxy-3,5-dimethylpyridin-2-yl)methyl]-2,7,8,9-tetrahydro-6-thia-1,2,3,5-tetraazabenzo[cd]azulen-8-yl}-N-methylacetamide] | 650 | 320 | 820 |  |  |  |  |
| COc1c(C)cnc(Cn2nc3c4c(nc(N)nc42)SCC(CCn2ccnc2)=C3)c1C [Example 137, 8-[2-(1H-Imidazol-1-yl)ethyl]-2-[(4-methoxy-3,5-dimethylpyridin-2-yl)methyl]-2,7-dihydro-6-thia-1,2,3,5-tetraazabenzo[cd]azulen-4-amine] |  |  | 950 | 200 | 67 |  |  |
| COc1c(C)cnc(Cn2nc3c4c(nc(N)nc42)SCC(NC2CC2)C3)c1C (stereo not drawn) [Example 51, N^8-Cyclopropyl-2-[(4-methoxy-3,5-dimethylpyridin-2-yl)methyl]-2,7,8,9-tetrahydro-6-thia-1,2,3,5-tetraazabenzo[cd]azulene-4,8-diamine hydrochloride] | 150 | 58 | 2400 |  |  |  |  |
| COc1c(C)cnc(Cn2nc3c4c(nc(N)nc42)SCC(CC(=O)N2CCC2)=C3)c1C [Example 123, 8-(2-Azetidin-1-yl-2-oxoethyl)-2-[(4-methoxy-3,5-dimethylpyridin-2-yl)methyl]-2,7-dihydro-6-thia-1,2,3,5-tetraazabenzo[cd]azulen-4-amine] | 71 | 38 | 630 |  |  |  |  |
| CNC(=O)CC1=Cc2nn(Cc3ncc(C)c(OC)c3C)c3nc(N)nc(c23)SC1 [Example 116, 2-{4-Amino-2-[(4-methoxy-3,5-dimethylpyridin-2-yl)methyl]-2,7-dihydro-6-thia-1,2,3,5-tetraazabenzo[cd]azulen-8-yl}-N-methylacetamide] | 89 | 37 | 1100 |  |  |  |  |
| COc1c(C)cnc(Cn2nc3c4c(nc(N)nc42)SCC(c2cccnc2)=C3)c1C [Example 223, 2-[(4-Methoxy-3,5-dimethylpyridin-2-yl)methyl]-8-pyridin-3-yl-2,7-dihydro-6-thia-1,2,3,5-tetraazabenzo[cd]azulen-4-amine] |  |  | 1100 | 250 | 140 |  |  |
| COc1c(C)cnc(Cn2nc3c4c(nc(N)nc42)SCC(N2CCC[C@H]2C(N)=O)C3)c1C (stereo partly drawn) [Example 67, 1-{4-Amino-2-[(4-methoxy-3,5-dimethylpyridin-2-yl)methyl]-2,7,8,9-tetrahydro-6-thia-1,2,3,5-tetraazabenzo[cd]azulen-8-yl}-L-prolinamide] | 300 | 130 | 1200 |  |  |  |  |
| COc1c(C)cnc(Cn2nc3c4c(nc(N)nc42)SC(C#N)C3)c1C (stereo not drawn) [Example 4, 4-Amino-2-[(4-methoxy-3,5-dimethylpyridin-2-yl)methyl]-7,8-dihydro-2H-6-thia-1,2,3,5-tetraazaacenaphthylene-7-carbonitrile] | 69 | 44 | 870 |  |  |  |  |
| Nc1nc2c3c(nn(Cc4ccc5c(c4)OCO5)c3n1)CCS2 [Example 167, 2-(1,3-Benzodioxol-5-ylmethyl)-7,8-dihydro-2H-6-thia-1,2,3,5-tetraazaacenaphthylen-4-amine] | 7300 | 3300 | 5400 |  |  |  |  |
| COc1c(C)cnc(Cn2nc3c4c(nc(N)nc42)SCC(CCN2CCCC2)=C3)c1C [Example 141, 2-[(4-Methoxy-3,5-dimethylpyridin-2-yl)methyl]-8-(2-pyrrolidin-1-ylethyl)-2,7-dihydro-6-thia-1,2,3,5-tetraazabenzo[cd]azulen-4-amine] |  |  | 1000 | 260 | 41 |  |  |
| COc1c(C)cnc(Cn2nc3c4c(nc(N)nc42)SCC=C3)c1C [Example 36, 2-[(4-Methoxy-3,5-dimethylpyridin-2-yl)methyl]-2,7-dihydro-6-thia-1,2,3,5-tetraazabenzo[cd]azulen-4-amine] | 86 | 52 | 970 |  |  |  |  |
| Nc1nc2c3c(nn(Cc4cc5ccccc5cn4)c3n1)CCS2 [Example 153] | 5900 | 2600 | 1900 |  |  |  |  |
| COc1c(C)cnc(Cn2nc3c4c(nc(N)nc42)SCC(CCN2CCCCC2)=C3)c1C [Example 145, 2-[(4-Methoxy-3,5-dimethylpyridin-2-yl)methyl]-8-(2-piperidin-1-ylethyl)-2,7-dihydro-6-thia-1,2,3,5-tetraazabenzo[cd]azulen-4-amine] |  |  | 890 | 45 | 19 |  |  |
| COc1ccnc(Cn2nc3c4c(nc(N)nc42)SCC3)c1C [Example 164, 2-[(4-Methoxy-3-methylpyridin-2-yl)methyl]-7,8-dihydro-2H-6-thia-1,2,3,5-tetraazaacenaphthylen-4-amine] | 760 | 410 | 970 |  |  |  |  |
| N^8-(S)-Cyclopropyl-2-[(4-methoxy-3,5-dimethylpyridin-2-yl)methyl]-2,7,8,9-tetrahydro-6-thia-1,2,3,5-tetraazabenzo[cd]azulene-4,8-diamine [Example 181] |  |  | 3100 |  |  | 76 | 45 |
| COc1c(C)cnc(Cn2nc3c4c(nc(N)nc42)SC(C(=O)Nc2nccs2)C3)c1C (stereo not drawn) [Example 191, 4-Amino-2-[(4-methoxy-3,5-dimethylpyridin-2-yl)methyl]-N-(1,3-thiazol-2-yl)-7,8-dihydro-2H-6-thia-1,2,3,5-tetraazaacenaphthylene-7-carboxamide] | 57 | 20 | 1500 |  |  |  |  |

From patent US8158638B2, “Pyrazolopyrimidine derivative” (Daiichi Sankyo Company, Limited, priority 2006, dated 2012)
